In BindingDB's records for doi:10.7270/Q2N014XN (Srmlsc, 2007) one finds IC50 data, which are given here for 53 compounds.

The term IC50 denotes the concentration at which inhibition is half-maximal. A low value points to higher potency.

The first experiment deals with T1, Diphosphomevalonate decarboxylase (Streptococcus pneumoniae serotype 2 (strain D39 / NCTC 7466), UniProt A0A0H2ZN59).
T1 sequence (A0A0H2ZN59 whole entry): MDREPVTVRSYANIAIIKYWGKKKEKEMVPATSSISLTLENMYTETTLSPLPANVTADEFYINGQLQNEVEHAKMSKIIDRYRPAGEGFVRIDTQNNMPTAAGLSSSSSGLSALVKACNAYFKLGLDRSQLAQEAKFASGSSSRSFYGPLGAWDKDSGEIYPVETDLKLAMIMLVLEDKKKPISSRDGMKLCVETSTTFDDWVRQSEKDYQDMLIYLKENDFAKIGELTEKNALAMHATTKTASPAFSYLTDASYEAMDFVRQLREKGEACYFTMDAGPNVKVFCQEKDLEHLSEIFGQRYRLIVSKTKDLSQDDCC
The experiment is described as follows: S. pneumoniae DPM-DC inhibitor potency, dose response, biochemical, PK/LDH-coupled NADH fluorescence, hexokinase coupling counter-screen (AID 550).
Conditions: not given
On the technique in general: The purpose of a counterscreen is to sort out artefacts and off-target activity.
Regarding `CCOc1ccccc1OCC(=O)Nc1ccc(N2CCCCC2)cc1` [2-(2-ethoxyphenoxy)-N-(4-piperidin-1-ylphenyl)acetamide], the IC50 was > 10000 µM.
On the same count and under the same terms, with `O=C1NC(=O)C(CC(=O)N(c2ccccc2)C2(C(=O)NC3CCCC3)CCCCC2)N1` (stereo not drawn) [1-[2-[2,5-bis(oxidanylidene)imidazolidin-4-yl]ethanoyl-phenyl-amino]-N-cyclopentyl-cyclohexane-1-carboxamide] the figure was > 10000 µM; with `CCOC(=O)Cc1csc(-n2sc3ccccc3c2=O)n1` [MLS000082162], 7.58 µM.
`O=c1c2ccccc2sn1-c1ccc(S(=O)(=O)N2CCCCC2)cc1` [2-(4-piperidin-1-ylsulfonylphenyl)-1,2-benzothiazol-3-one] showed a concentration for half-maximal inhibition (IC50) of 2.15 µM. This IC50 lies about 3.5-fold lower than the previous one.
Same read-out and setting: the result for `COc1ccc(-n2c(NC(=O)c3ccco3)c(C#N)c3nc4ccccc4nc32)cc1` [MLS000079925] reads 16.9 µM.
Same read-out and setting: the result for `COc1cc2c(C#N)c(N3CCN(c4ccccc4OC)CC3)nc(N)c2c(N)n1` [1,8-diamino-6-methoxy-3-(4-(2-methoxyphenyl)piperazin-1-yl)-2,7-naphthyridine-4-carbonitrile] reads > 10000 µM; that for `CCOC(=O)c1c(Nc2nc(C)c(C(=O)NC)s2)sc(C)c1C` [4,5-dimethyl-2-[[4-methyl-5-(methylcarbamoyl)-2-thiazolyl]amino]-3-thiophenecarboxylic acid ethyl ester], > 10000 µM; that for `COc1ccc(NC(=O)c2nnn(Cc3ccc(SC)cc3)c2N)c(OC)c1` [5-amino-N-(2,4-dimethoxyphenyl)-1-[(4-methylsulfanylphenyl)methyl]triazole-4-carboxamide], 28.5 µM.
With `COc1ccccc1CNc1ncnc2nc[nH]c12` [MLS000101257], the 50% inhibitory concentration (IC50) was > 10000 µM.
On the same count and under the same terms, with `COc1ccc(C(=O)NCc2cn3c(C)csc3n2)cc1OC` [3,4-dimethoxy-N-[(3-methyl-6-imidazo[2,1-b]thiazolyl)methyl]benzamide] the figure was > 10000 µM; with `CCOc1cc2[nH]c(=O)n(Cc3ccc(C(=O)NCCOC)cc3)c(=O)c2cc1OCC` [MLS000120003], 183 µM; with `COc1ccc2c(c1)-c1ccccc1S(=O)(=O)N2C(C)=O` [1-(5,5-diketo-9-methoxy-benzo[c][1,2]benzothiazin-6-yl)ethanone], 80.2 µM.
Still for that read-out and setting: with `O=C(c1noc2c1CCCC2)N1CCCCC1` [1-piperidinyl(4,5,6,7-tetrahydro-1,2-benzoxazol-3-yl)methanone] the figure was > 10000 µM; with `CCc1cc2c(=O)c(-c3nc4ccccc4n3C)c(C)oc2c(CN2CCN(C)CC2)c1O`, 49.5 µM; with `CCOC(=O)C(Cc1ccccc1)C(=O)Nc1nccs1` (stereo not drawn) [2-benzyl-3-keto-3-(thiazol-2-ylamino)propionic acid ethyl ester], > 10000 µM.
In turn, `Nc1cc(N)cc(-c2nc3ccccc3[nH]2)c1` [SMR000008815] displayed an IC50 of 79.1 µM. That is a double-digit micromolar value.
The same measure, in the same setting: the result for `Cc1c(C(=O)OCC(C)(C)CN(C)C)oc2ccccc12` [3-Methyl-benzofuran-2-carboxylic acid 3-dimethylamino-2,2-dimethyl-propyl ester] reads > 10000 µM.
Still for that read-out and setting: with `COc1cc(CNc2ccc(N3CCOCC3)c(C(=O)O)c2)ccc1OCC(N)=O` [5-[[4-(2-amino-2-keto-ethoxy)-3-methoxy-benzyl]amino]-2-morpholino-benzoic acid] the figure was 65.5 µM; with `CCN(CCNC(=O)C1CCN(c2nnc(-n3cccc3)s2)CC1)c1ccccc1` [MLS000119699], > 10000 µM; with `CC(C)(O)P(C)(=O)c1ccccc1` (stereo not drawn) [2-[methyl(phenyl)phosphoryl]-2-propanol], > 10000 µM.
Take `O=C(CSc1ncnc2c1cnn2-c1ccccc1)Nc1ccc2c(c1)OCO2` [MLS000041214]: the IC50 was > 10000 µM.
In turn, `NC(=O)c1ccsc1NC(=O)c1nc(-c2ccccc2)n(-c2ccccc2)n1` [MLS000054020] gave an IC50 of 55.9 µM. In other words, the double-digit micromolar range.
Same read-out and setting: with `CC(C)c1nc2oc3c(NCc4ccccn4)ncnc3c2c2c1COC(C)(C)C2` [MLS000084035] the figure was 813 µM.
The same measure, in the same setting: the result for `O=C(c1ccc(F)cc1)N1CCC(N2CCCCCC2)CC1` [MLS000037563] reads > 10000 µM.
On the same count and under the same terms, the result for `CC(=O)Nc1cccc(NC(=O)CSc2nnnn2Cc2ccccc2)c1` [MLS000068005] reads > 10000 µM.
The compound `O=C(NCC1CCCO1)c1coc2nc3ccccc3nc12` (stereo not drawn) [MLS000046703] had an IC50 of 30.6 µM.
Same read-out and setting: with `COC(=O)c1[nH]c2cccc(OC)c2c1NC(=O)CCN1CCN(c2ccccc2OC)CC1` [MLS000040529] the figure was 27.4 µM; with `Cc1cccc(OCC(O)Cn2c(-n3nc(C)cc3C)nc3c2c(=O)[nH]c(=O)n3C)c1` (stereo not drawn) [8-(3,5-dimethylpyrazol-1-yl)-7-[2-hydroxy-3-(3-methylphenoxy)propyl]-3-methylpurine-2,6-dione], > 10000 µM; with `COc1ccc(C2C3=C(OC(C)=O)c4ccccc4C3=Nc3c2c(=O)n(C)c(=O)n3C)cc1` (stereo not drawn) [MLS000073247], > 10000 µM.
The same measure, in the same setting: the result for `Cc1cc(C)c2c(n1)nn1c(N3CCN(c4ccccc4)CC3)cc(C)nc21` [2,8,10-trimethyl-4-(4-phenyl-1-piperazinyl)pyrido[2,3]pyrazolo[2,4-a]pyrimidine] reads 12.7 µM.
As to `N#CC(C(=O)NC1CCCCC1)c1nc2ccccc2nc1N1CCCCC1` (stereo not drawn) [2-cyano-N-cyclohexyl-2-(3-piperidin-1-ylquinoxalin-2-yl)acetamide], the IC50 was > 10000 µM.
Same read-out and setting: with `CCOC(=O)COc1ccc2nsnc2c1Cl` [2-(4-chloropiazthiol-5-yl)oxyacetic acid ethyl ester] the figure was > 10000 µM; with `CCOC(=O)c1c(C)n(OCc2ccccc2)c2ccc3c(n[o+]n3[O-])c12` [6-benzoxy-7-methyl-3-oxido-pyrrolo[2,3-g][2,1,3]benzoxadiazol-3-ium-8-carboxylic acid ethyl ester], > 10000 µM; with `CCOC(=O)C1=C(C)N=C(C)C(C(=O)OCC)C1c1cc2ccc(C)cc2[nH]c1=O` (stereo not drawn) [diethyl 2,6-dimethyl-4-(7-methyl-2-oxidanylidene-1H-quinolin-3-yl)-1,4-dihydropyridine-3,5-dicarboxylate], 150 µM.
`O=C(C1CCCCC1)N1CCC(c2nc3c(nnn3Cc3ccccc3Cl)c(=O)[nH]2)CC1`: the IC50 was > 10000 µM.
On to `CCc1c(C)c(C#N)c2nc3ccccc3n2c1Nc1c(C)n(C)n(-c2ccccc2)c1=O` [1-[(1,5-dimethyl-3-oxidanylidene-2-phenyl-pyrazol-4-yl)amino]-2-ethyl-3-methyl-pyrido[1,2-a]benzimidazole-4-carbonitrile], for which the IC50 was > 10000 µM.
Still for that read-out and setting: the result for `CCc1ccc(S(=O)(=O)NCc2cn3ccsc3n2)s1` [5-ethyl-N-(6-imidazo[2,1-b]thiazolylmethyl)-2-thiophenesulfonamide] reads > 10000 µM; that for `O=C1CC(c2cccnc2)c2cc3c(cc2N1)OCO3` (stereo not drawn) [8-(3-pyridinyl)-7,8-dihydro-5H-[1,3]dioxolo[4,5-g]quinolin-6-one], > 10000 µM.
The same measure, in the same setting: the result for `COc1cccc(Cn2c(=S)[nH]c3ccc(N4CCOCC4)cc3c2=O)c1` reads 36.2 µM.
The same measure, in the same setting: with `COc1ccccc1NC(=O)C1=C(C)N=C2CCCC(=O)C2C1c1ccc2c(c1)OCO2` (stereo not drawn) [4-(1,3-benzodioxol-5-yl)-N-(2-methoxyphenyl)-2-methyl-5-oxo-4,6,7,8-tetrahydro-1H-quinoline-3-carboxamide] the figure was 76.3 µM.
`COCCn1c(C)cc(C(=O)COc2nc3ccccc3nc2C)c1C` [1-[1-(2-methoxyethyl)-2,5-dimethyl-3-pyrrolyl]-2-[(3-methyl-2-quinoxalinyl)oxy]ethanone]: the IC50 was found to be 3000 µM.
On the same count and under the same terms, with `Clc1c(-c2nnc3n2CCC3)sc2ccccc12` [3-(3-chloranyl-1-benzothiophen-2-yl)-6,7-dihydro-5H-pyrrolo[2,1-c][1,2,4]triazole] the figure was > 10000 µM; with `COCCCn1c(=S)[nH]c2ccc(N3CCOCC3)cc2c1=O` [MLS000095418], 26.7 µM; with `COc1ccccc1NC(=O)CSc1nc(O)cc(=O)n1-c1ccccc1OC` [N-(2-methoxyphenyl)-2-[1-(2-methoxyphenyl)-6-oxidanyl-4-oxidanylidene-pyrimidin-2-yl]sulfanyl-ethanamide], > 10000 µM.
As to `O=C(Nc1ccc(N2CCCCC2)cc1)c1cccnc1` [MLS000074324], the IC50 is > 10000 µM.
`Cc1cccc2cc(CN(Cc3ccco3)S(=O)(=O)c3ccc4c(c3)OCCO4)c(=O)[nH]c12` [N-(furan-2-ylmethyl)-N-[(8-methyl-2-oxidanylidene-1H-quinolin-3-yl)methyl]-2,3-dihydro-1,4-benzodioxine-6-sulfonamide]: the IC50 is > 10000 µM.
`CC(C)CC(=O)NCC(C)NC(=O)CC(C)C` (stereo not drawn) [3-methyl-N-[2-(3-methylbutanoylamino)propyl]butanamide]: the IC50 is > 10000 µM.
Compound `CCN(CC)S(=O)(=O)c1ccc(NC(=O)c2cccc3c2C(=O)N(CCOC)C3)cc1` [MLS000045293] displayed an IC50 of 50.5 µM.
Take `C=C(C)Cn1c(COc2ccccc2)nnc1SCC(=O)O` [2-[[4-(2-methylallyl)-5-(phenoxymethyl)-1,2,4-triazol-3-yl]thio]acetic acid]: the concentration for half-maximal inhibition (IC50) is > 10000 µM.
On the same count and under the same terms, the result for `COc1ccc(-c2cc(C(F)(F)F)nc(SCCC(=O)Nc3cc(C)on3)n2)cc1` [3-[4-(4-Methoxy-phenyl)-6-trifluoromethyl-pyrimidin-2-ylsulfanyl]-N-(5-methyl-isoxazol-3-yl)-propionamide] reads > 10000 µM.
In the case of `CCCn1c(C)nc2c(c1=O)c1nc3ccccc3nc1n2-c1ccc2c(c1)OCCO2` [MLS000042026], the half-inhibitory concentration (IC50) is > 10000 µM.

Still in this experiment, the particulars now being: inactive by the depositor's call.
Compound `CCn1nc(-c2ccccc2)nc2c(=O)n(C)c(=O)nc1-2` [1-Ethyl-6-methyl-3-phenyl-1H-pyrimido[5,4-e][1,2,4]triazine-5,7-dione] returned a concentration for half-maximal inhibition (IC50) of 20 µM.
Same read-out and setting: the result for `Nc1cc(C(=O)O)ccc1Nc1ccccc1` [3-amino-4-anilino-benzoic acid] reads 120 µM.
